From US12178838B2, “Synthetic neuromodulatory peptides” (Lactocore, Inc., priority 2019, dated 2024)

Tests used:
[1] = tested on: BALB/C mice; assay: Elevated Plus Maze test in mice; assay type: in vivo; details: ip, Diazepam 0.75 mg/kg
Procedure: After an adaptation period, the test substance was intraperitoneally injected into mice. Behavioral parameters were measured in 30 minutes after injection. The tests were administered as follows: day 1—the Open field test, day 3—the Elevated plus maze test, day 5—the Marble burying test, days 12-13—the Porsolt swim (two-day modification) test.
In the elevated plus maze test, a test arena includes two open and two closed arms crossed in the middle. The arm length is 30 cm, the height of the closed arms side walls is 15 cm. The entire installation is raised 70 cm above the floor. The open arms have bright uniform illumination of about 400 lux, and the closed arms have illumination of about 30-40 lux. Mice were placed at the junction of the four arms of the maze (center), facing an open arm. The following behavioral parameters were automatically registered by the EthoVision, Noldus program within 5 minutes of the experiment: a total distance (cm), a time of motion (if the speed is more than 5 cm/s), an immobility (if the speed is less than 0.2 cm/sec), a mean and maximum velocity, and the number of episodes of motor activity and “freezing”. The same set of parameters, as well as a latent period and the duration of stay, were measured for the central sector, open and closed arms separately. (Manufactured by OpenScience, Russia).
All substances were injected intraperitoneally in a volume of 10 μl of solution per 1 gram of animal weight 30 minutes prior to behavioral testing.
The second group of parameters includes a time on open arms (in seconds) (FIG. 35), a number of open arms entries (FIG. 36), a number of risk behavior (number of rearings and dangle events, as shown in FIG. 37]), and an anxiety index (FIG. 38). The anxiety index (AI) was calculated using the following formula: AI=100*(1−(time on open arms/total test time+open arms entries/total number of entries)/2)

[2] = tested on: Sprague Dawley rats; assay: Elevated Plus Maze in rats, intranasal FQSE; assay type: in vivo; details: FQSE 0.5 mg/kg i.n.; diazepam 2 mg/kg IP
Procedure: The five doses of FQSE (SEQ ID NO:10) (0.01, 0.1, 0.5, 1 and 3 mg/kg, CS, Menlo Park, CA) were prepared fresh for each test day in sterile saline and administered intranasally (i.n.) 30 minutes prior to testing. Fifteen rats per group per peptide dose were tested with the exception that there were twenty rats in the vehicle (0) group. Each dose was administered in a randomized order across rats. Prior to dosing, the rats were lightly anesthetized (till loss of righting reflex) with isoflurane (2.5%, 0.5 L/min oxygen), placed in the recumbent position, then a thin plastic pipette (Fischer Scientific) inserted into the nares and peptide administered at a volume of 15-20 uL per nares. Individuals performing the behavioral tests were blind to drug treatment.
Rats were first allowed to acclimate to the testing room for 30 minutes while in their home cage. During testing, a rat was placed on the maze which consists of two open arms (45-cm long×10-cm wide), two closed arms (45-cm long×10-cm wide×30-cm high), and a middle compartment (4-cm long×4-cm wide) forming the shape of a plus located 50-cm above the floor, for 5-min. The test session was digitally recorded for later analyses (Ethovision, XT12). All testing was conducted under red lighting. An experimenter observed the rat during testing through a specialized observation window built into the door of the behavioral testing room. […]

CN1C(=O)CN=C(c2ccccc2)c2cc(Cl)ccc21 [Diazepam]
Time on open arms ([1]; FQSE 20 mg/kg): 67.4 ± 18.43 s | Open arms entries ([1]; FQSE 1 mg/kg): 6.5±0.99 | The number of risk behavior ([1]; FQSE 1 mg/kg): 15±2.8 | total distance ([1]; FQSE 1 mg/kg): 1219±91.4 cm | percent time on the open arm [2]: 10.8±1.11%
